Laboratory results from patent US9302999B2, “Substituted triazoles as herbicides” (E. I. DU PONT DE NEMOURS AND COMPANY, priority 2012, dated 2016).

Experiments:
[1] = tested on: Barnyardgrass; test: Test C postemergence: barnyardgrass; assay type: in vivo, Echinochloa crus-galli; settings: 125 g ai/ha, scale 0 to 100, 0 no effect, 100 complete control
Text: (§1) Seeds of plant species selected from blackgrass (Alopecurus myosuroides), bromegrass, downy (downy bromegrass, Bromus tectorum), foxtail, green (green foxtail, Setaria viridis), ryegrass, Italian (Italian ryegrass, Lolium multiflorum), winter wheat (Triticum aestivum), wild oat (Avena fatua), galium (catchweed bedstraw, Galium aparine), bermudagrass (Cynodon dactylon), surinam grass (Brachiaria decumbens), cocklebur (common cocklebur, Xanthium strumarium), corn (Zea mays), large crabgrass (Digitaria sanguinalis), woolly cupgrass (Eriochloa villosa), foxtail, giant (giant foxtail, Setaria faberii), goosegrass (Eleusine indica), johnsongrass (Sorghum halepense), kochia (Kochia scoparia), lambsquarters (Chenopodium album), morningglory (Ipomoea coccinea), nightshade (eastern black nightshade, Solanum ptycanthum), nutsedge, yellow (yellow nutsedge, Cyperus esculentus), pigweed (Amaranthus retroflexus), ragweed (common ragweed, Ambrosia elation), soybean (Glycine max), common (oilseed) sunflower (Helianthus annuus), Russian thistle (Salsola kali) and velvetleaf (Abutilon theophrasti) were planted into a blend of loam soil and sand and treated preemergence with test chemicals formulated in a non-phytotoxic solvent mixture which included a surfactant.
(§2) At the same time, plants selected from these crop and weed species and also barley (winter barley, Hordeum vulgare), canarygrass (Phalaris minor), chickweed (common chickweed, Stellaria media) windgrass (Apera spica-venti) and deadnettle (henbit deadnettle, Lamium amplexicaule) were planted in pots containing Redi-Earth® planting medium (Scotts Company, 14111 Scottslawn Road, Marysville, Ohio 43041) comprising spaghnum peat moss, vermiculite, wetting agent and starter nutrients and treated with postemergence applications of test chemicals formulated in the same manner. Plants ranged in height from 2 to 18 cm (1- to 4-leaf stage) for postemergence treatments.
(§3) Treated plants and controls were maintained in a greenhouse for 13 to 15 days, after which time all species were compared to controls and visually evaluated. Plant response ratings, summarized in Table C, are based on a scale of 0 to 100 where 0 is no effect and 100 is complete control. A dash (-) response means no test result.

[2] = tested on: Oilseed Rape; test: Test C pre-/postemergence: oilseed rape; assay type: in vivo; settings: Preemergence, 250 g ai/ha; scale 0 to 100, 0 no effect, 100 complete control
Text: as §1, §2, §3

[3] = tested on: Oilseed Rape; test: Test C preemergence: oilseed rape; assay type: in vivo; settings: 62 g ai/ha, scale of 0 to 100, 0 is no effect, 100 is complete control
Text: as §1, §3

[4] = tested on: Barnyardgrass; test: Test C preemergence: barnyardgrass; assay type: in vivo, Echinochloa crus-galli
Text: as §1, §3

[5] = tested on: barnyardgrass (Echinochloa crus-galli); test: Test C pre-/postemergence: barnyardgrass; assay type: in vivo; settings: Preemergence, 250 g ai/ha; scale 0 to 100, 0 no effect, 100 complete control
Text: as §1, §2, §3

[6] = tested on: Waterhemp; test: Test C postemergence: waterhemp; assay type: in vivo
Text: as §2, §3

[7] = tested on: Oilseed Rape; test: Test C postemergence: oilseed rape; assay type: in vivo
Text: as §2, §3

[8] = tested on: Waterhemp; test: Test C postemergence: waterhemp; assay type: in vivo, Amaranthus rudis; settings: 125 g ai/ha, scale 0 to 100, 0 no effect, 100 complete control
Text: as §1, §2, §3

[9] = tested on: canarygrass (Phalaris minor); test: Test C postemergence: canarygrass; assay type: in vivo
How it was run: (§4)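 Crop and weed plants were grown in peat-vermiculite medium and treated postemergence at the 1- to 4-leaf stage (2-18 cm tall). After 13-15 days in a greenhouse, each species was rated visually against untreated controls on a 0-100 scale (0 no effect, 100 complete control).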

[10] = tested on: deadnettle (henbit deadnettle, Lamium amplexicaule); test: Test C postemergence: deadnettle; assay type: in vivo
How it was run: as §4

[11] = tested on: nightshade (eastern black nightshade, Solanum ptycanthum); test: Test C pre-/postemergence: nightshade; assay type: in vivo; settings: Preemergence
How it was run: (§5)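 Preemergence on seeds in loam/sand, postemergence on 2–18 cm (1–4-leaf) plants in peat-based medium; compounds in non-phytotoxic solvent with surfactant. After 13–15 days in greenhouse, visual rating versus controls, 0 (no effect) to 100 (complete control).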

[12] = tested on: bromegrass, downy (downy bromegrass, Bromus tectorum); test: Test C pre-/postemergence: bromegrass, downy; assay type: in vivo
How it was run: as §5

[13] = tested on: cocklebur (common cocklebur, Xanthium strumarium); test: Test C pre-/postemergence: cocklebur; assay type: in vivo
How it was run: as §5

[14] = tested on: barley (winter barley, Hordeum vulgare); test: Test C postemergence: barley; assay type: in vivo
How it was run: as §4

[15] = tested on: woolly cupgrass (Eriochloa villosa); test: Test C pre-/postemergence: woolly cupgrass; assay type: in vivo
How it was run: as §5

[16] = tested on: goosegrass (Eleusine indica); test: Test C pre-/postemergence: goosegrass; assay type: in vivo
How it was run: as §5

[17] = tested on: foxtail, green (green foxtail, Setaria viridis); test: Test C pre-/postemergence: foxtail, green; assay type: in vivo
How it was run: as §5

[18] = tested on: windgrass (Apera spica-venti); test: Test C postemergence: windgrass; assay type: in vivo
How it was run: as §4

[19] = 31 g ai/ha, scale 0 (no effect) to 100 (complete control)
[20] = 125 g ai/ha, scale 0 to 100, 0 no effect, 100 complete control
[21] = 31 g ai/ha, scale 0 to 100 (0 no effect, 100 complete control)
[22] = 62 g ai/ha, scale 0 to 100 (0 no effect, 100 complete control)
[23] = Postemergence, 31 g ai/ha, scale 0 to 100 (0 no effect, 100 complete control)
[24] = Postemergence, 62 g ai/ha, scale 0 to 100 (0 no effect, 100 complete control)
[25] = Postemergence, 125 g ai/ha, scale 0 to 100, 0 no effect, 100 complete control
[26] = Postemergence, 250 g ai/ha, scale 0 to 100
[27] = Preemergence, 31 g ai/ha, scale 0 (no effect) to 100 (complete control)
[28] = Preemergence, 62 g ai/ha, scale 0 to 100, 0 no effect, 100 complete control
[29] = Preemergence, 125 g ai/ha, scale 0 to 100, 0 no effect, 100 complete control
[30] = Preemergence, 250 g ai/ha, scale 0 to 100, 0 no effect, 100 complete control
[31] = Postemergence, 250 g ai/ha, scale 0 to 100 (0 no effect, 100 complete control)

CCOc1nn(-c2ccc(C(F)(F)F)cc2)nc1Cc1ccnc(C(F)(F)F)c1 [Compound 164, 4-[[5-ethoxy-2-[4-(trifluoromethyl)phenyl]-2H-1,2,3-triazol-4-yl]methyl]-2-(trifluoromethyl)pyridine]
Plant response rating, Barnyardgrass [1]: 10 | Plant response rating, Oilseed Rape [2]: 30 | Plant response rating, Oilseed Rape [3]: 5 | Plant response rating, Barnyardgrass [4, 19]: 5 | Plant response rating, Barnyardgrass ([4]; 62 g ai/ha, scale of 0 to 100, 0 is no effect, 100 is complete control): 15 | Plant response rating, Barnyardgrass [4, 20]: 25 | Plant response rating, Barnyardgrass [5]: 70 | Plant response rating, Waterhemp [6, 21]: 35 | Plant response rating, Waterhemp [6, 22]: 65 | Plant response rating, Waterhemp ([6]; 250 g ai/ha, scale 0 to 100): 75 | Plant response rating, Oilseed Rape [7, 21]: 5 | Plant response rating, Oilseed Rape [7, 22]: 5 | Plant response rating, Oilseed Rape ([7]; 250 g ai/ha, scale 0 to 100): 25 | Plant response rating, Waterhemp [8]: 65

CCOc1nn(-c2ccc(F)cc2)nc1Cc1ccnc(C(F)(F)F)c1 [Compound 196, 4-[[5-ethoxy-2-(4-fluorophenyl)-2H-1,2,3-triazol-4-yl]methyl]-2-(trifluoromethyl)pyridine]
Plant response rating, Canarygrass [9, 21]: 80 | Plant response rating, Canarygrass [9, 22]: 90 | Plant response rating, Canarygrass [9, 20]: 90 | Plant response rating, Canarygrass ([9]; 250 g ai/ha, scale 0 to 100): 90 | Plant response rating, Deadnettle [10, 21]: 100 | Plant response rating, Deadnettle [10, 22]: 100 | Plant response rating, Deadnettle [10, 20]: 100 | Plant response rating, Deadnettle ([10]; 250 g ai/ha, scale 0 to 100): 100 | Plant response rating, Nightshade [11, 19]: 100 | Plant response rating, Nightshade ([11]; 62 g ai/ha, scale 0 to 100, 0 no effect, 100 complete control): 100 | Plant response rating, Nightshade [11, 20]: 100 | Plant response rating, Nightshade ([11]; 250 g ai/ha, scale 0 to 100, 0 no effect, 100 complete control): 100 | Plant response rating, Bromegrass, Downy [12, 23]: 50 | Plant response rating, Bromegrass, Downy [12, 24]: 50 | Plant response rating, Bromegrass, Downy [12, 25]: 70 | Plant response rating, Bromegrass, Downy [12, 26]: 80 | Plant response rating, Bromegrass, Downy [12, 27]: 60 | Plant response rating, Bromegrass, Downy [12, 28]: 95 | Plant response rating, Bromegrass, Downy [12, 29]: 100 | Plant response rating, Bromegrass, Downy [12, 30]: 100 | Plant response rating, Cocklebur [13, 23]: 55 | Plant response rating, Cocklebur [13, 24]: 60 | Plant response rating, Cocklebur [13, 25]: 65 | Plant response rating, Cocklebur [13, 26]: 75 | Plant response rating, Cocklebur [13, 27]: 5 | Plant response rating, Cocklebur [13, 29]: 45 | Plant response rating, Cocklebur [13, 30]: 75 | Plant response rating, Barley [14, 21]: 30 | Plant response rating, Barley [14, 22]: 40 | Plant response rating, Barley [14, 20]: 45 | Plant response rating, Barley ([14]; 250 g ai/ha, scale 0 to 100): 50 | Plant response rating, Cupgrass, Woolly [15, 23]: 30 | Plant response rating, Cupgrass, Woolly [15, 24]: 80 | Plant response rating, Cupgrass, Woolly [15, 25]: 85 | Plant response rating, Cupgrass, Woolly [15, 26]: 90 | Plant response rating, Cupgrass, Woolly [15, 27]: 90 | Plant response rating, Cupgrass, Woolly [15, 28]: 98 | Plant response rating, Cupgrass, Woolly [15, 29]: 100 | Plant response rating, Cupgrass, Woolly [15, 30]: 100 | Plant response rating, Goosegrass [16, 23]: 75 | Plant response rating, Goosegrass [16, 24]: 75 | Plant response rating, Goosegrass [16, 25]: 80 | Plant response rating, Goosegrass [16, 31]: 85 | Plant response rating, Goosegrass [16, 27]: 100 | Plant response rating, Goosegrass [16, 28]: 100 | Plant response rating, Goosegrass [16, 29]: 100 | Plant response rating, Goosegrass [16, 30]: 100 | Plant response rating, Foxtail, Green [17, 23]: 100 | Plant response rating, Foxtail, Green [17, 24]: 100 | Plant response rating, Foxtail, Green [17, 25]: 100 | Plant response rating, Foxtail, Green [17, 31]: 100 | Plant response rating, Foxtail, Green [17, 27]: 90 | Plant response rating, Foxtail, Green [17, 28]: 90 | Plant response rating, Foxtail, Green [17, 29]: 90 | Plant response rating, Foxtail, Green [17, 30]: 90 | Plant response rating, Windgrass [18, 21]: 80 | Plant response rating, Windgrass [18, 22]: 80 | Plant response rating, Windgrass [18, 20]: 95 | Plant response rating, Windgrass ([18]; 250 g ai/ha, scale 0 to 100 (0 no effect, 100 complete control)): 95
